Measured values reported in patent US20180117082A1, “ANTIFUNGAL COMPOSITION/TREATMENT” (THE UNIVERSITY OF NOTTINGHAM, priority 2015, published 2018).

What was measured:
[1] = system: R. solani; test: Growth inhibition assay in PDB medium (OD600); conditions: same concentrations as in the combinations (FIG. 6, FIG. 7)
Experimental: (§1) Candida spp. or S. cerevisiae were inoculated from YEPD plates to YEPD broth (composition as above, minus agar) and cultured overnight at 30° C., 120 rev min^−1. Overnight cultures were diluted to OD600˜0.5 and cultured for a further 4 h in fresh YEPD before dilution of these experimental cultures to OD600˜0.01 or ˜0.1 in the same medium. Aliquots (300 μl) of the diluted culture plus any chemical supplements (see above), as specified, were transferred to 48-well plates (Greiner Bio-One). OD600 was monitored continuously in a BioTek Powerwave-XS microplate spectrophotometer, with shaking at 30 C. […] Spores of R. solani or Z. tritici were inoculated from PDA plates to potato dextrose broth (PDB; Fluka) (20,000 spores ml^−1). Aliquots (150 μl) of the diluted culture plus any chemical supplements, as specified, were transferred to 96-well plates (Greiner Bio-one) and cultured over 8 d at 24° C., 120 rev min-1. OD600 was monitored every day in a BioTek EL800 microplate spectrophotometer.

[2] = system: Zygosaccharomyces bailii; test: Growth inhibition assay on solid medium, spotted serial dilutions; type: cell-based; conditions: same concentrations as in the combinations, each agent alone (FIG. 2A)
Excerpt: Images were captured after 2 d (YEPD) or 3 d (YNB) growth at 30 C. For growth-inhibition assays on solid medium with R. solani, circular sections of ˜0.5 cm diameter were excised from cultures on PDA and transferred to the centre of fresh plates. Images were captured after 3 d growth at 28 C and the total mycelial area determined using ImageJ and GIMP2 software. Where specified, chemical supplements were included in the solid media.

[3] = system: Rhizoctonia solani; test: Growth inhibition assay on solid medium (PDA agar), mycelial outgrowth; type: cell-based; conditions: 300 μg ml^−1 paromomycin or 15 mM molybdate alone (FIG. 2B)
Experimental: For qualitative growth-inhibition assays with yeasts on solid medium, experimental cultures prepared as described above were adjusted to OD600˜2.0, 0.2, 0.02, 0.002, 0.0002 and the dilution series spotted (4 μl) on to either YEPD agar (above) or yeast nitrogen base (YNB) agar: 0.69% (w/v) yeast nitrogen base without amino acids (Formedium; Norfolk, UK) supplemented with 2% (w/v) D-glucose, 0.06 mg ml^−1 leucine, 0.02 mg ml^−1 histidine, 0.02 mg ml^−1 uracil and 2% (w/v) bacteriological agar (Sigma-Aldrich). Images were captured after 2 d (YEPD) or 3 d (YNB) growth at 30 C. For growth-inhibition assays on solid medium with R. solani, circular sections of ˜0.5 cm diameter were excised from cultures on PDA and transferred to the centre of fresh plates. Images were captured after 3 d growth at 28 C and the total mycelial area determined using ImageJ and GIMP2 software. Where specified, chemical supplements were included in the solid media.

[4] = system: Candida albicans; test: Growth inhibition assay in YEPD broth (OD600); type: cell-based; conditions: 25 μM chromate, 200 μg ml^−1 paromomycin or 10 μg ml^−1 hygromycin, each alone (FIG. 1A)
Experimental: as §1

Row | SMILES | inhibitory effect, agent individually [1] | effect on growth, agent alone [2] | growth-inhibitory effect, agent alone [3] | inhibitory effect on growth, agent alone [4]
1 | O=[Se](=O)(O)O [selenate] | none of these agents had an inhibitory effect individually | – | – | –
2 | [O]=[Mo](=[O])([O-])[O-] [molybdate] | – | neither agent alone had a significant effect on growth | neither agent alone had a marked growth-inhibitory effect | –
3 | NC[C@@H]1O[C@H](O[C@H]2[C@@H](O)[C@H](O[C@@H]3[C@@H](O)[C@H](N)C[C@H](N)[C@H]3O[C@H]3O[C@H](CO)[C@@H](O)[C@H](O)[C@H]3N)O[C@@H]2CO)[C@H](N)[C@@H](O)[C@@H]1O [paromomycin] | – | neither agent alone had a significant effect on growth | neither agent alone had a marked growth-inhibitory effect | no discernible inhibitory effect
4 | CN(C)C(=S)SSC(=S)N(C)C [thiram] | none of these agents had an inhibitory effect individually | – | – | –
5 | CCC[C@H](N)C(=O)O [norvaline] | none of these agents had an inhibitory effect individually | – | – | –
6 | O=S(=O)(O)c1cc(N=C=S)ccc1C=Cc1ccc(N=C=S)cc1S(=O)(=O)O [DIDS, 4,4′-diisothio-cyanotostilbene-2,2′-disulphonate] | – | neither agent alone had a significant effect on growth | – | –
7 | [Cu] [copper] | none of these agents had an inhibitory effect individually | – | – | –
